pIC50: −log10 of the molar value. Converted amounts (≈) assume the structure as drawn. Each block holds one compound with its values, some of them ahead of it.
How the values were obtained:
[1] = Oral bioavailability in Sprague-Dawley rat at 5 mg/kg by LC-MS/MS analysis; format: ADME, organism-based; settings: in vivo
[2] = Volume of distribution at steady state in Balb/c mouse at 1 mg/kg, iv or 5 mg/kg, po by LC-MS/MS analysis; format: ADME, organism-based; settings: in vivo, read-out: Vdss
[3] = tested on: Rattus norvegicus; assay: Toxicity in rat assessed as decrease in activity at 250 to 1000 mg/kg administered single dose via oral gavage; format: organism-based; settings: in vivo
[4] = Half life in cynomolgus monkey at 1 mg/kg, iv by LC-MS/MS analysis; format: ADME, organism-based, Macaca fascicularis; settings: in vivo
[5] = target: T1, Cytochrome P450 2C19 (Homo sapiens, UniProt P33261); assay: Drug metabolism assessed as recombinant human CYP2C19-mediated metabolite formation; format: ADME; settings: recombinant enzyme
T1 sequence (P33261 whole entry): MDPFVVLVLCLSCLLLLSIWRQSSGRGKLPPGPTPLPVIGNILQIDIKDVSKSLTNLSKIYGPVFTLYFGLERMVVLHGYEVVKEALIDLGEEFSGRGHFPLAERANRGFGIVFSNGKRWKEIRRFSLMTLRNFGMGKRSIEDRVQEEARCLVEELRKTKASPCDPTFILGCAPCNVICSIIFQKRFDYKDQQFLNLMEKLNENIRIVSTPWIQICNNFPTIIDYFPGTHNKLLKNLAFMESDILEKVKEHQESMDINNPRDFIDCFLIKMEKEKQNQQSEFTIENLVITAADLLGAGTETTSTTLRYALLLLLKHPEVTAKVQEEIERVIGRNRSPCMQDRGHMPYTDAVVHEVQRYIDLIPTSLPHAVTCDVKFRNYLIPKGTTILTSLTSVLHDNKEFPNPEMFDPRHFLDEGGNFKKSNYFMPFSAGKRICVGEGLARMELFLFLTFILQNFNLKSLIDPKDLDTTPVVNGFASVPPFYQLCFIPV

[6] = Drug excretion in Sprague-Dawley rat at 1 mg/kg, iv or 5 mg/kg, po by LC-MS/MS analysis; format: ADME, organism-based; settings: in vivo, read-out: Drug excretion
[7] = target: Cytochrome P450 2D6 (Homo sapiens, UniProt P10635); assay: Inhibition of CYP2D6 in human liver microsomes using dextromethorphan as substrate after 15 mins by LC-MS/MS analysis; format: ADME
Chain of Cytochrome P450 2D6 (P10635 whole entry): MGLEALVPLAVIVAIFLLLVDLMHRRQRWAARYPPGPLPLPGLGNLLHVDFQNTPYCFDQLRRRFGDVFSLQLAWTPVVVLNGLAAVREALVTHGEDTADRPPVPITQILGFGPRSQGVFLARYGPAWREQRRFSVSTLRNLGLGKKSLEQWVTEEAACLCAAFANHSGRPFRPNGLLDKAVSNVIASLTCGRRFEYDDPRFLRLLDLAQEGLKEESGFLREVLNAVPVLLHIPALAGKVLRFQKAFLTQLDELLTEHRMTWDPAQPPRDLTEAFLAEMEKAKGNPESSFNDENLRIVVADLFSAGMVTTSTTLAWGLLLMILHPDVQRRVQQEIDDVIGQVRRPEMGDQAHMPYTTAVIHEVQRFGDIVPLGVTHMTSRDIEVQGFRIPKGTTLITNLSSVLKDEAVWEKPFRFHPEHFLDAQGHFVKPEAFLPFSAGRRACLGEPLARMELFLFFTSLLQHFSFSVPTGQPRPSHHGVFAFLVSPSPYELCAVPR

[8] = target: T1, Cytochrome P450 2C19; assay: Inhibition of CYP2C19 in human liver microsomes using S-mephenytoin as substrate after 15 mins by LC-MS/MS analysis; format: ADME
[9] = Clearance in Sprague-Dawley rat at 1 mg/kg, iv or 5 mg/kg, po by LC-MS/MS analysis; format: ADME, organism-based; settings: in vivo
[10] = Clearance in cynomolgus monkey at 1 mg/kg, iv or 5 mg/kg, po by LC-MS/MS analysis; format: ADME, organism-based, Macaca fascicularis; settings: in vivo
[11] = Ratio of drug level in po dosed Sprague-Dawley rat brain to plasma; format: ADME, organism-based; settings: read-out: BPR
[12] = tested on: Rattus norvegicus; assay: Toxicity in rat assessed as ataxia at 500 to 1000 mg/kg administered single dose via oral gavage; format: organism-based; settings: in vivo
[13] = Clearance in beagle dog at 0.5 mg/kg, iv or 2.5 mg/kg, po by LC-MS/MS analysis; format: ADME, organism-based, Canis lupus familiaris; settings: in vivo
[14] = tested on: Rattus norvegicus; assay: Toxicity in rat assessed as hepatic lipidosis at 50 to 350 mg/kg administered via oral gavage on day 1 and day 4 measured on day 5 by hematoxylin/eosin staining-based microscopic method; format: organism-based; settings: in vivo
[15] = Half life in beagle dog at 0.5 mg/kg, iv by LC-MS/MS analysis; format: ADME, organism-based, Canis lupus familiaris; settings: in vivo
[16] = Oral bioavailability in Balb/c mouse at 5 mg/kg by LC-MS/MS analysis; format: ADME, organism-based; settings: in vivo
[17] = Protein binding in mouse plasma at 1 uM after 6 hrs by equilibrium dialysis method; format: ADME, cell-free; settings: read-out: PPB (converted)
[18] = Clearance in Balb/c mouse at 1 mg/kg, iv or 5 mg/kg, po by LC-MS/MS analysis; format: ADME, organism-based; settings: in vivo
[19] = Half life in Balb/c mouse at 1 mg/kg, iv by LC-MS/MS analysis; format: ADME, organism-based; settings: in vivo
[20] = target: T2, Cytochrome P450 2C9 (Homo sapiens, UniProt P11712); assay: Drug metabolism assessed as recombinant human CYP2C9-mediated metabolite formation; format: ADME; settings: recombinant enzyme
T2 sequence (P11712 whole entry): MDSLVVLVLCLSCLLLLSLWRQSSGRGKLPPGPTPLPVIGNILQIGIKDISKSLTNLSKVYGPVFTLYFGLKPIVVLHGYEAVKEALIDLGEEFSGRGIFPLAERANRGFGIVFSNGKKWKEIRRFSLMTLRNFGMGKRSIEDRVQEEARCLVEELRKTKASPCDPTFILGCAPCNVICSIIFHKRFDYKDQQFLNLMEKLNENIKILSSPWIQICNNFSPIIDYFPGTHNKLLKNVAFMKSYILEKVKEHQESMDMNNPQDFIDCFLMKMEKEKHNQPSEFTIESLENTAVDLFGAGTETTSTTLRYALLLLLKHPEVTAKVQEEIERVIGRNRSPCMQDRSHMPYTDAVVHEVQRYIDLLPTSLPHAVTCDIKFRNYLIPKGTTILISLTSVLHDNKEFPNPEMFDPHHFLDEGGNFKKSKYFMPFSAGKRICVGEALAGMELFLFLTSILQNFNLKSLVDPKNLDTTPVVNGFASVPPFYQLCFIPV

[21] = Volume of distribution at steady state in cynomolgus monkey at 1 mg/kg, iv or 5 mg/kg, po by LC-MS/MS analysis; format: ADME, organism-based, Macaca fascicularis; settings: in vivo, read-out: Vdss
[22] = Volume of distribution at steady state in Sprague-Dawley rat at 1 mg/kg, iv or 5 mg/kg, po by LC-MS/MS analysis; format: ADME, organism-based; settings: in vivo, read-out: Vdss
[23] = tested on: Rattus norvegicus; assay: Toxicity in rat assessed as autoinduction at 50 to 150 mg/kg administered via oral gavage on day 1 and day 4; format: organism-based; settings: in vivo
[24] = Solubility of compound in phosphate buffer at pH 2 after 3 days; format: physicochemical
[25] = tested on: Rattus norvegicus; assay: Ex vivo receptor occupancy at P2X7 in po dosed Sprague-Dawley rat brain assessed as plasma concentration required to achieve EC50 after 60 mins by autoradiography; format: functional, organism-based
[26] = Protein binding in human plasma at 1 uM after 6 hrs by equilibrium dialysis method; format: ADME, cell-free; settings: read-out: PPB (converted)
[27] = target: Cytochrome P450 3A4 (Homo sapiens, UniProt P08684); assay: Inhibition of CYP3A4 in human liver microsomes using midazolam as substrate after 15 mins by LC-MS/MS analysis; format: ADME
Chain of Cytochrome P450 3A4 (P08684 whole entry): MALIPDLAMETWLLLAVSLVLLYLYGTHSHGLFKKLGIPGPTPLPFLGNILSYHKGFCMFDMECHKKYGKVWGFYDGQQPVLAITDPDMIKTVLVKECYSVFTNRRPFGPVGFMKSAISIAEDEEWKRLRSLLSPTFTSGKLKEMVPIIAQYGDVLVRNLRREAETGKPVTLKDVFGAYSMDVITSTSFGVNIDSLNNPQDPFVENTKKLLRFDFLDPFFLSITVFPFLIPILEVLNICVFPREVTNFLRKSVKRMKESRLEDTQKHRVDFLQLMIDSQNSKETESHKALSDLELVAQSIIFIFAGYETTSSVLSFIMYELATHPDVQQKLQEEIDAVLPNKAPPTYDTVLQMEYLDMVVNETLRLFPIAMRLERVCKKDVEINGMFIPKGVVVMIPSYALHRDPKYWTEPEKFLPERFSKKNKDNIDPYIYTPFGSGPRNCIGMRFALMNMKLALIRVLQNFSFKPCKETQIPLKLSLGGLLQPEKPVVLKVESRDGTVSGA

[28] = tested on: Rattus norvegicus; assay: Ex vivo receptor occupancy at P2X7 in po dosed Sprague-Dawley rat brain after 60 mins by autoradiography; format: functional
[29] = target: T3, Cytochrome P450 2C8 (Homo sapiens, UniProt P10632); assay: Inhibition of CYP2C8 in human liver microsomes using paclitaxel as substrate after 15 mins by LC-MS/MS analysis; format: ADME
T3 sequence (P10632 whole entry): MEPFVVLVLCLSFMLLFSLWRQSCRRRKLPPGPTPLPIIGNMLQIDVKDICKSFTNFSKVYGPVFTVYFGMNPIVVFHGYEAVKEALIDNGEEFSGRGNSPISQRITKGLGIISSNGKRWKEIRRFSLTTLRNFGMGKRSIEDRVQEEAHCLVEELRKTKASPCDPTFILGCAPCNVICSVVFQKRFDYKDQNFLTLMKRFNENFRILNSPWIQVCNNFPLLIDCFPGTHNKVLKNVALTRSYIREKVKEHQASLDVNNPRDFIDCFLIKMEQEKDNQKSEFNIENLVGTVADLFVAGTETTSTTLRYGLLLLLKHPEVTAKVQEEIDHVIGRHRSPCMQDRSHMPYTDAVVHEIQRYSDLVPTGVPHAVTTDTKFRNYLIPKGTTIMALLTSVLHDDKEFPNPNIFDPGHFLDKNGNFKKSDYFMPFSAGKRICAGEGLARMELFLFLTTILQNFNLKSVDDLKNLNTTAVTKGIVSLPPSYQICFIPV

[30] = target: T4, Cytochrome P450 1A2 (Homo sapiens, UniProt P05177); assay: Inhibition of CYP1A2 in human liver microsomes using phenacetin as substrate after 15 mins by LC-MS/MS analysis; format: ADME
T4 sequence (P05177 whole entry): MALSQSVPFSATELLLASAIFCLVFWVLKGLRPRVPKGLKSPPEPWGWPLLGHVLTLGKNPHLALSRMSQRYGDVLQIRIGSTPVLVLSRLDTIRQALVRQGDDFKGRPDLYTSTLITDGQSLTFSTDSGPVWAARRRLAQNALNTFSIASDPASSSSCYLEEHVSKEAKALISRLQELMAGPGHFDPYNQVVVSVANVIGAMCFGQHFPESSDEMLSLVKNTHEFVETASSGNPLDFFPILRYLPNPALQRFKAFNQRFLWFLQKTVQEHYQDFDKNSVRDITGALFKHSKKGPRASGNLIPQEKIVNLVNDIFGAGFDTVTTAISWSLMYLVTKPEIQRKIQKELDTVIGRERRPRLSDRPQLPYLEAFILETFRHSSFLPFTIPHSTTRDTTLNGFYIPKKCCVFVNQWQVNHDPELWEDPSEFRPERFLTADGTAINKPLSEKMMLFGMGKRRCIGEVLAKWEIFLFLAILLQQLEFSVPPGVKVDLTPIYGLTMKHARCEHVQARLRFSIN

[31] = Volume of distribution at steady state in beagle dog at 0.5 mg/kg, iv or 2.5 mg/kg, po by LC-MS/MS analysis; format: ADME, organism-based, Canis lupus familiaris; settings: in vivo, read-out: Vdss
[32] = Oral bioavailability in beagle dog at 2.5 mg/kg by LC-MS/MS analysis; format: ADME, organism-based, Canis lupus familiaris; settings: beagle, in vivo
[33] = tested on: Plasma; assay: Plasma concentration in rat at 250 mg/kg administered single dose via oral gavage; format: ADME, organism-based; settings: in vivo
[34] = tested on: Rattus norvegicus; assay: Toxicity in rat assessed as increase in liver weight at 50 to 150 mg/kg administered via oral gavage on day 1 and day 4; format: organism-based; settings: in vivo
[35] = Half life in Sprague-Dawley rat at 1 mg/kg, iv by LC-MS/MS analysis; format: ADME, organism-based; settings: in vivo
[36] = Protein binding in rat plasma at 1 uM after 6 hrs by equilibrium dialysis method; format: ADME, cell-free; settings: read-out: PPB (converted)
[37] = target: Voltage-gated inwardly rectifying potassium channel KCNH2 (Homo sapiens, UniProt Q12809); assay: Inhibition of [3H]-dofetilide binding to human ERG expressed in HEK293 cells; format: cell-based
Chain of Voltage-gated inwardly rectifying potassium channel KCNH2 (Q12809 whole entry): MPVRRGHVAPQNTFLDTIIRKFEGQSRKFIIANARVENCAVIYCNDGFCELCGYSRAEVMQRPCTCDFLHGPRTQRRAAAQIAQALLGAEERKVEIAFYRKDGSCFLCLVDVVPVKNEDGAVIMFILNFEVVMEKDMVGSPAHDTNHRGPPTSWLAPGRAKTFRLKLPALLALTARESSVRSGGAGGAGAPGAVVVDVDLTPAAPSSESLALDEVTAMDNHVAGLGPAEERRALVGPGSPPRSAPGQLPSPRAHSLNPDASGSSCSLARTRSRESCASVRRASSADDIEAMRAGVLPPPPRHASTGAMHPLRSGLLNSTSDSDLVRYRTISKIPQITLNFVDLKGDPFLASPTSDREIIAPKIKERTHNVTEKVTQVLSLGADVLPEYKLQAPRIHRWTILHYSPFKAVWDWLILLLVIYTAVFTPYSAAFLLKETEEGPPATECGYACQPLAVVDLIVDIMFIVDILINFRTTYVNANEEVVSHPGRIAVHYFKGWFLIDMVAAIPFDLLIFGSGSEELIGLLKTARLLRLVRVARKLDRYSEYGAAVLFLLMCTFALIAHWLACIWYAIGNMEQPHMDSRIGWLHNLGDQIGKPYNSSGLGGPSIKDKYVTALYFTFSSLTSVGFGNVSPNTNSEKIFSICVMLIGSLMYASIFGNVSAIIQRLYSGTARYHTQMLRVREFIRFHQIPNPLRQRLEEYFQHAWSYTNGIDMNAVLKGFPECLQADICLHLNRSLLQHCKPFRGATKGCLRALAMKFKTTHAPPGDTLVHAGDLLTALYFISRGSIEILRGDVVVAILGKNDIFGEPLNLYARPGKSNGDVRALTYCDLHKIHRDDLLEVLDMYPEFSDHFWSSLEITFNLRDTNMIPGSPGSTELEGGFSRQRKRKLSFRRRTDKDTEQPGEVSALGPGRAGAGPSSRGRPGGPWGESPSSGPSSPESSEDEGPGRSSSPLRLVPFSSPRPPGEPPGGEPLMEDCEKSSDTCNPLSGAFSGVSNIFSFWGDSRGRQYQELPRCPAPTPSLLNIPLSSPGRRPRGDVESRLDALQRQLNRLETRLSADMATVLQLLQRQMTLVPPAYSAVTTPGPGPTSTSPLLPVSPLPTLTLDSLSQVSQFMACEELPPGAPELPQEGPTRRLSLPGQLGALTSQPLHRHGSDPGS

[38] = target: T2, Cytochrome P450 2C9; assay: Inhibition of CYP2C9 in human liver microsomes using diclofenac as substrate after 15 mins by LC-MS/MS analysis; format: ADME
[39] = Oral bioavailability in cynomolgus monkey at 5 mg/kg by LC-MS/MS analysis; format: ADME, organism-based, Macaca fascicularis; settings: in vivo
[40] = Solubility of compound in phosphate buffer at pH 7 after 3 days; format: physicochemical
[41] = tested on: Rattus norvegicus; assay: Drug metabolism in Sprague-Dawley rat assessed as formation of (R)-(2-chloro-3-(trifluoromethyl)phenyl)(4-methyl-1,4,6,7-tetrahydro-5H-[1,2,3]triazolo[4,5-c]pyridin-5-yl)methanone at 1 mg/kg, iv or 5 mg/kg, po by LC-MS/MS analysis; format: ADME, organism-based; settings: in vivo
[42] = Volume of distribution at steady state in beagle dog at 1 mg/kg, iv or 3 mg/kg, po by LC-MS/MS analysis; format: ADME, organism-based, Canis lupus familiaris; settings: in vivo, read-out: Vdss
[43] = Protein binding in rat brain at 5 uM after 5 hrs by equilibrium dialysis method; format: ADME, tissue-based; settings: read-out: PB (converted)
[44] = tested on: Rattus norvegicus; assay: Ex vivo receptor occupancy at P2X7 in sc dosed Sprague-Dawley rat brain after 60 mins by autoradiography; format: functional
[45] = Clearance in beagle dog at 1 mg/kg, iv or 3 mg/kg, po by LC-MS/MS analysis; format: ADME, organism-based, Canis lupus familiaris; settings: in vivo
[46] = Half life in beagle dog at 1 mg/kg, iv by LC-MS/MS analysis; format: ADME, organism-based, Canis lupus familiaris; settings: in vivo
[47] = tested on: Rattus norvegicus; assay: Inhibition of Bz-ATP-induced IL-1beta release in sc dosed Sprague-Dawley rat hippocampus preincubated for 1 hr followed by Bz-ATP challenge measured after 2 hrs by microdialysis method; format: functional, organism-based
[48] = Oral bioavailability in beagle dog at 3 mg/kg by LC-MS/MS analysis; format: ADME, organism-based, Canis lupus familiaris; settings: in vivo

- bioavailability [1]: 92%
- Vd [2]: 1.1 L/kg
- half-life [4]: 0.8 h
- Drug metabolism [5]: Metabolite_Detected
- dose excreted [6]: 0.4%
- pIC50 [7]: < 5.00
- pIC50 [8]: < 5.00
- clearance [9]: 66 mL/min/kg
- clearance [10]: 19 mL/min/kg
- Kp [11]: 0.8
- clearance [13]: 1.4 mL/min/kg
- half-life [15]: 11 h
- bioavailability [16]: 61%
- fraction unbound at 6 h, 1 µM [17]: 0.074
- clearance [18]: 32 mL/min/kg
- half-life [19]: 0.4 h
- Drug metabolism [20]: Metabolite_Detected
- Vd [21]: 0.9 L/kg
- Vd [22]: 1.5 L/kg
- solubility at 72 h [24]: > 400 µM
- Cp [25]: 27 ng/mL
- fraction unbound at 6 h, 1 µM [26]: 0.084
- pIC50 [27]: < 5.00
- Occ [28]: Dose-dependent effect
- pIC50 [29]: < 5.00
- pIC50 [30]: < 5.00
- Vd [31]: 1.3 L/kg
- bioavailability [32]: 70%
- concentration [33]: 175 µM
- half-life [35]: 0.5 h
- fraction unbound at 6 h, 1 µM [36]: 0.076
- pIC50 [38]: < 5.00
- bioavailability [39]: 5%
- solubility at 72 h [40]: 180 µM (≈ 76.1 µg/mL)
- Drug metabolism [41]: Metabolite_Detected
Compound: C[C@@H]1c2nnn(-c3ncccn3)c2CCN1C(=O)c1cccc(C(F)(F)F)c1Cl
- Activity [3]: Toxic
- Activity [12]: Toxic
- Activity [14]: Toxic
- Activity [23]: Toxic
- ED50 ([28]; 1 h): 0.9 mg/kg
- Activity [34]: Toxic
- pIC50 [37]: < 5.00

- Vd [42]: 3.3 L/kg
- bioavailability [1]: 77%
- pIC50 [7]: < 5.00
- pIC50 [8]: 5.37
- clearance [9]: 46 mL/min/kg
- fraction unbound at 5 h, 5 µM [43]: 0.05
- fraction unbound at 6 h, 1 µM [17]: 0.053
- Vd [22]: 3 L/kg
- Occ [44]: Dose-dependent effect
- solubility at 72 h [24]: 48.2 µM (≈ 20.4 µg/mL)
- fraction unbound at 6 h, 1 µM [26]: 0.084
- pIC50 [27]: 5.64
- clearance [45]: 33 mL/min/kg
- half-life [46]: 2.4 h
- pIC50 [29]: < 5.00
- pIC50 [30]: < 5.00
- bioavailability [48]: 65%
- half-life [35]: 1.5 h
- fraction unbound at 6 h, 1 µM [36]: 0.063
- pIC50 [38]: < 5.00
- solubility at 72 h [40]: 94.4 µM (≈ 39.9 µg/mL)
Compound: C[C@@H]1c2nnn(-c3cnccn3)c2CCN1C(=O)c1cccc(C(F)(F)F)c1Cl
- ED50 ([44]; 1 h): 0.3 mg/kg
- inhibition [47]: Dose-dependent effect
- pIC50 [37]: < 5.00

Source: ChEMBL document CHEMBL4052642, “4-Methyl-6,7-dihydro-4H-triazolo[4,5-c]pyridine-Based P2X7 Receptor Antagonists: Optimization of Pharmacokinetic Properties Leading to the Identification of a Clinical Candidate” (J Med Chem, 2017)
